Data set [1] in a line: Whole blood stability, rat. The note with it: rat whole blood, 37C. How it is done:
(§1) Procedures for blood Stability. • A. 398 μL of blood from each species was added to an incubation plate, which was pre-warmed at 37C for 15 minutes. • B. After the pre-incubation, 2 μL of working solution (test compounds or control compounds) was spiked to 398 μL of blood to reach a final concentration of 1 μM for test compounds and 5 μM for control compounds. The final concentration of organic solvents is 0.5%. The assays were performed in duplicate. • C. The reaction samples were incubated at 37C. • D. Aliquots of 50 μL were taken from the reaction samples at 0, 15, 30, 60 and 120 minutes. The reaction was stopped by the addition of 50 μL ultrapure water and 400 μL cold acetonitrile. • E. All samples were vortexed for 10 minutes, followed by centrifugation at 3,220 g for 40 minutes to precipitate proteins. 100 μL of the supernatant was then transferred to a new plate. The supernatant was diluted with ultrapure water as needed for detection by LC-MS/MS. Sample Analysis
(§2) Samples were analyzed by LC-MS/MS to measure the concentration of the test compounds.
(§3) All calculations were carried out using Microsoft Excel and according to standard analysis methods that are known in the art.

Data set [2] can be described thus: Whole blood stability, human. The method, then: as §1, §2, §3
Data set [3] can be described thus: Whole blood stability, dog. The method, then: as §1, §2, §3
Data set [4] relates to guinea pig ileum myenteric plexus-longitudinal muscle (MPLM) strips. Kind of data set: EFS-induced contractions in guinea pig ileum MPLM strips.
For data set [5], the system named is tear production. The data set is described as follows: THP-induced dry eye in dogs: tear production. The note with it: oral, 2 mpk alone. Type of data set: in vivo, Beagles.
Data set [6] deals with haloperidol-induced catalepsy. Kind of data set: Haloperidol-induced catalepsy (bar test). Format: in vivo, Sprague Dawley rats. The note with it: rats, haloperidol 1 mg/kg sc, Rac-THP 10, 20, 30 mg/kg, R-THP or S-THP 5, 10, 15 mg/kg ip. The method, then: Animals: Adult male Sprague Dawley rats (230-235 g) from Envigo were used in this study. Upon receipt, rats were group housed in ventilated cages and acclimated for one week prior to testing.
The front paws of a rat were placed then on a horizontal metal bar raised 6″ above a Plexiglas platform. Each rat underwent 3 trials of 60 seconds each. The test ended when the animal's front paws return to the platform or after 60 seconds. Rats were tested at 30 and 60 minutes after treatment.
Data were analyzed by one-way analysis of variance (ANOVA) followed by Tukey's post-hoc comparisons, where appropriate. Data are represented as mean and standard error to the mean (SEM).

The procedure of data set [7]: The resulting metabolites were analyzed by liquid chromatography-mass spectrometry, and metabolite peaks were detected and measured.
For data set [8], the target named is T1, CYP1A2 (Homo sapiens, UniProt P05177).
T1 sequence (P05177 1-516): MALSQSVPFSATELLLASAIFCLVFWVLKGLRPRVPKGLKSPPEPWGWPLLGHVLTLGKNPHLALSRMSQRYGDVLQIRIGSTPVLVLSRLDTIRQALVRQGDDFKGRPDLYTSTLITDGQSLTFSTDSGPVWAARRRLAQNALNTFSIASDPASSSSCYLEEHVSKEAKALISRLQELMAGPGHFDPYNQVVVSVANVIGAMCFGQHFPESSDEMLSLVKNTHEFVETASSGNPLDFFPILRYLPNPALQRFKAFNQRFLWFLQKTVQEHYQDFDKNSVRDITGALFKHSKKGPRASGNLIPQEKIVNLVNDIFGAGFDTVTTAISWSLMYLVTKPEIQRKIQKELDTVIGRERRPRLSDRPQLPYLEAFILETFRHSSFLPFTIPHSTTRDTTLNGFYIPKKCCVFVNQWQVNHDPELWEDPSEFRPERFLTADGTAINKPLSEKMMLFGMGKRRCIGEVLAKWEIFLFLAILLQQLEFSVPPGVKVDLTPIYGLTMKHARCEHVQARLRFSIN
Kind of data set: Incubation with recombinant CYP1A2.

The target of data set [9] is T2, CYP2A6 (Homo sapiens, UniProt P11509).
T2 sequence (P11509 1-494): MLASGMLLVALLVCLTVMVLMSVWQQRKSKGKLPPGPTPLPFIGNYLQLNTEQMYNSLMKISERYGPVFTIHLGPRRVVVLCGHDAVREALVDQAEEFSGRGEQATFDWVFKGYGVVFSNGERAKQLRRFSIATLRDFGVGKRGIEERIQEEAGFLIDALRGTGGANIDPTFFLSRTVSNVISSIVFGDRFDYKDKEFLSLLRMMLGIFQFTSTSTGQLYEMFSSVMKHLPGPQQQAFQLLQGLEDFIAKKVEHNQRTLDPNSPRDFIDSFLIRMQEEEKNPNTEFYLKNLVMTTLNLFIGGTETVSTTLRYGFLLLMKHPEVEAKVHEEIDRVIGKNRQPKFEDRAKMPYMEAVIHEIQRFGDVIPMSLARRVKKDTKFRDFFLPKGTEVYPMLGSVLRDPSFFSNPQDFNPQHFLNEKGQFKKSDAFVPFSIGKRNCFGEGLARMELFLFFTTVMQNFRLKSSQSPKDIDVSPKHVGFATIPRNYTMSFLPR
Kind of data set: Incubation with recombinant CYP2A6.

The target in data set [10] is T3, CYP2B6 (Homo sapiens, UniProt P20813).
T3 sequence (P20813 1-491): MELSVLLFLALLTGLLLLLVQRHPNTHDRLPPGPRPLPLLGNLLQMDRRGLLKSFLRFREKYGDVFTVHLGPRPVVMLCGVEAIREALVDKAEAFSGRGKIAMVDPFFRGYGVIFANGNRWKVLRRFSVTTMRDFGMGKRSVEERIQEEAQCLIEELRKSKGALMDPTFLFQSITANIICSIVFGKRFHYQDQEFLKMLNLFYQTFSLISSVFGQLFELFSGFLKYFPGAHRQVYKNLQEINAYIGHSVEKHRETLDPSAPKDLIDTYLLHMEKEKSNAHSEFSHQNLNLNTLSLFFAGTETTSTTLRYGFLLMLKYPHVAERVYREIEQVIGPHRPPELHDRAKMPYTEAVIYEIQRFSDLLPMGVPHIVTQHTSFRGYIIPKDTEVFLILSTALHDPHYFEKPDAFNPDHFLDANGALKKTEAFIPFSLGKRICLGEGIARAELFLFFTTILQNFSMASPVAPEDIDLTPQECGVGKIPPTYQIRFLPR
Kind of data set: Incubation with recombinant CYP2B6.

The target in data set [11] is T4, CYP2C8 (Homo sapiens, UniProt P10632).
T4 sequence (P10632 1-490): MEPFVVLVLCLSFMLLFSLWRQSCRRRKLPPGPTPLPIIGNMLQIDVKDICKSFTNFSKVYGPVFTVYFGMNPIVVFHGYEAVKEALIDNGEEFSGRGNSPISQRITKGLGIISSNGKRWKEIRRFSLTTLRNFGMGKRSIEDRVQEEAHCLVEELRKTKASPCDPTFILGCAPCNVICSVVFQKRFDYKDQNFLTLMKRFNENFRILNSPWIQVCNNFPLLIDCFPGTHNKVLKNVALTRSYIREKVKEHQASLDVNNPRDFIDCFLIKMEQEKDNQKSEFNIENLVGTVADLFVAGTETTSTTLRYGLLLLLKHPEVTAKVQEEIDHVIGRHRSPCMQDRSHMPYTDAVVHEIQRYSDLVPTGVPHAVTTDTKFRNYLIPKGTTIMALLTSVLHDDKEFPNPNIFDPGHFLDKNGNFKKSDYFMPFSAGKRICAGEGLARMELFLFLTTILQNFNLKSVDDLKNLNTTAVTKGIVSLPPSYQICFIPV
Kind of data set: Incubation with recombinant CYP2C8.

For data set [12], the target named is CYP2C9 (Homo sapiens, UniProt P11712). The data set is described as follows: Incubation with recombinant CYP2C9.
Data set [13] addresses CYP2D6 (Homo sapiens, UniProt P10635). Kind of data set: Incubation with recombinant CYP2D6.
The target of data set [14] is CYP2E1 (Homo sapiens, UniProt P05181). The data set is described as follows: Incubation with recombinant CYP2E1.
The target of data set [15] is CYP3A4 (Homo sapiens, UniProt P08684). Kind of data set: Incubation with recombinant CYP3A4.
In data set [16] the target is CYP3A5 (Homo sapiens, UniProt P20815). The data set is described as follows: Incubation with recombinant CYP3A5.
In data set [17] the target is CYP2C19 (Homo sapiens, UniProt P33261). Kind of data set: Incubation with recombinant CYP2C19.
Setting [18] is: cumulative concentration response curve, no pre-treatment.

CYP2E1, sequence (P05181 whole entry): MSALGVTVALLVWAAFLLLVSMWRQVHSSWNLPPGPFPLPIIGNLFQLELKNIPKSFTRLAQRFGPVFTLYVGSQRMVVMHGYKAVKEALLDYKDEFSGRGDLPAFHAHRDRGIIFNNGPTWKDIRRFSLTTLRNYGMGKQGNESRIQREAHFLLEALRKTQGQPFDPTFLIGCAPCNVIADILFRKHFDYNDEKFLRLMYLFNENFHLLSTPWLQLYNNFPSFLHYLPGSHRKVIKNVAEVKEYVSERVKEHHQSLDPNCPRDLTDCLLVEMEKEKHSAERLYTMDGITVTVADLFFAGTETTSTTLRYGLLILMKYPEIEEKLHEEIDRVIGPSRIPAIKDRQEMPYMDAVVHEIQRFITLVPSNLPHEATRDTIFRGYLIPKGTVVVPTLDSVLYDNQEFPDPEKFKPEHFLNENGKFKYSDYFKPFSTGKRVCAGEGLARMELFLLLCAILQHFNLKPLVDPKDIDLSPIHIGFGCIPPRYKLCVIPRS
CYP2C9, sequence (P11712 whole entry): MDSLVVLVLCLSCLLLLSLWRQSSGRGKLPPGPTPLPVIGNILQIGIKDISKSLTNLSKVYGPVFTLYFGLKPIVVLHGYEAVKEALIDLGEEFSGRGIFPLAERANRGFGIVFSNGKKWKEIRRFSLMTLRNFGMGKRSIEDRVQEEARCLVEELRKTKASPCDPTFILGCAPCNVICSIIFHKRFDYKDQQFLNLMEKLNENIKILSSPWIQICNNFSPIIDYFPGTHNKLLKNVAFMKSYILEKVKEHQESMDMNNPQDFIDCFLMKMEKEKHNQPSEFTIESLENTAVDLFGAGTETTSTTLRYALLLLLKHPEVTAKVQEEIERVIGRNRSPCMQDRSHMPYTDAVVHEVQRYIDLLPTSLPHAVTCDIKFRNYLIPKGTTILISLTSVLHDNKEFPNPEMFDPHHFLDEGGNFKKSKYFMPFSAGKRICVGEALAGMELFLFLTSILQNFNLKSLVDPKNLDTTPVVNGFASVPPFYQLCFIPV
CYP2D6, sequence (P10635 whole entry): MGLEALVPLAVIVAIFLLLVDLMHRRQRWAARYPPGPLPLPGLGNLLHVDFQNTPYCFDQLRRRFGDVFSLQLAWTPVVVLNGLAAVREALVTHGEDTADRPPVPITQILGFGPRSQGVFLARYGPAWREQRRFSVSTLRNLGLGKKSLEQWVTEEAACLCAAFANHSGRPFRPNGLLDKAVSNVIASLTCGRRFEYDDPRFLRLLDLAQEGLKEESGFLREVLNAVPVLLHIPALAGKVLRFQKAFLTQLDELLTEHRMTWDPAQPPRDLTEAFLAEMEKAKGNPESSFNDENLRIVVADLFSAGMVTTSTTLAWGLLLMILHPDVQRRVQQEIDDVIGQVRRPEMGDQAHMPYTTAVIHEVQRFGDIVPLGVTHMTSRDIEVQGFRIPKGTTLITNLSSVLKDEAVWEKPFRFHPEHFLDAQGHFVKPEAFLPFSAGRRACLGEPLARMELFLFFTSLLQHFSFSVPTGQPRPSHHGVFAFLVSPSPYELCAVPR
CYP3A5, sequence (P20815 whole entry): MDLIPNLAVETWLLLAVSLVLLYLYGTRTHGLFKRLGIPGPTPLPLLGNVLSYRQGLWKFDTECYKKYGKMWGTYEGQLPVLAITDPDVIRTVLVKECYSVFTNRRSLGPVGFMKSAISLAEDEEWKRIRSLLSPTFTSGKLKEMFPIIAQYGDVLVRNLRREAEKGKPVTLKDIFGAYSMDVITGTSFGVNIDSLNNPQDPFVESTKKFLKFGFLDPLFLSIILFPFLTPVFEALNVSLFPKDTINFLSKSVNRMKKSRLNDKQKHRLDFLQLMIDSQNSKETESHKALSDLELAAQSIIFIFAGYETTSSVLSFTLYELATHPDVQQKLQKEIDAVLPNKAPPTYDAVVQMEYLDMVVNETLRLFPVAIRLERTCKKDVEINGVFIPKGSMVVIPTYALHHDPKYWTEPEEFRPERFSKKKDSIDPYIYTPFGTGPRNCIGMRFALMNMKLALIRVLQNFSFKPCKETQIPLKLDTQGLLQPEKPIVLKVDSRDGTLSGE
CYP3A4, sequence (P08684 whole entry): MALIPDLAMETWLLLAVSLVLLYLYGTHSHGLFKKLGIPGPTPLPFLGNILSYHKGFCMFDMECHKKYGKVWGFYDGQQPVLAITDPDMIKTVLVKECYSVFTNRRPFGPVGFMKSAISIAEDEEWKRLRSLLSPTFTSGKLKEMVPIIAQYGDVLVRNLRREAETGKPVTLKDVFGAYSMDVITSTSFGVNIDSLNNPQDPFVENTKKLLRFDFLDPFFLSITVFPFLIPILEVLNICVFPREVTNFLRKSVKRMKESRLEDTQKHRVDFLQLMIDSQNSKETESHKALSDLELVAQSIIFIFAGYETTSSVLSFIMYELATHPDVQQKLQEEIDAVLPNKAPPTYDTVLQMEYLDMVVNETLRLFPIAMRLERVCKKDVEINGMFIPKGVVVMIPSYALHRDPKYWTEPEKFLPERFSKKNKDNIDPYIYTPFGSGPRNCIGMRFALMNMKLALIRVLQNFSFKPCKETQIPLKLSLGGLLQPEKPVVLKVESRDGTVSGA
CYP2C19, sequence (P33261 whole entry): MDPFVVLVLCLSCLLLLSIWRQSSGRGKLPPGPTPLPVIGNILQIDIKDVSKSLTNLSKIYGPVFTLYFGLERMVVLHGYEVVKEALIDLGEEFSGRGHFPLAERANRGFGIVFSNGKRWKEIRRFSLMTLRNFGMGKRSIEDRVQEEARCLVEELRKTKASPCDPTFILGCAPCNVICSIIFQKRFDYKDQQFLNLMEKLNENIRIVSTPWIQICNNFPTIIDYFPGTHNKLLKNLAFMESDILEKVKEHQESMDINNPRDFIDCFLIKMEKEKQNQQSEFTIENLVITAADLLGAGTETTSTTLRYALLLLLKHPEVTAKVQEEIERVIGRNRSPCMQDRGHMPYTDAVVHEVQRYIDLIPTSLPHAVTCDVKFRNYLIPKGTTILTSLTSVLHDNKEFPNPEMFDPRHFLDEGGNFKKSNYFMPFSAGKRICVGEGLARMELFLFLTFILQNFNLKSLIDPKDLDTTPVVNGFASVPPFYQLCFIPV

Take Mevinolin: in [1], the “Remaining Percentages (%) 0 min” value is given as 100.00%, the “Remaining Percentages (%) 15 min” value is 9.32%, the “Remaining Percentages (%) 30 min” value is 1.68% and the “Remaining Percentages (%) 60 min” value is on record as 2.21%. For the same compound, in [1], the “Remaining Percentages (%) 120 min” value is recorded as 2.47% and the t1/2 stood at 4.38 min.

Take `CC(C)[N+](C)(CCOC(=O)C1c2ccccc2Oc2ccccc21)C(C)C` [Propantheline]: in data set [2] (human whole blood, 37C), the “Remaining Percentages (%) 0 min” value was 100.00%, the “Remaining Percentages (%) 15 min” value came out at 71.54%, the “Remaining Percentages (%) 30 min” value is 57.19% and the “Remaining Percentages (%) 60 min” value turned out to be 25.74%. In data set [2] (human whole blood, 37C), the “Remaining Percentages (%) 120 min” value stood at 6.31%. This compound also registered a half-life at 5 μM in [2] (human, whole blood) of 31 min. Besides, in data set [3] (dog whole blood, 37C), the “Remaining Percentages (%) 0 min” value is on record as 100.00%, the “Remaining Percentages (%) 15 min” value is 91.17%, the “Remaining Percentages (%) 30 min” value amounted to 90.30% and the “Remaining Percentages (%) 60 min” value is recorded as 85.38%. Besides, the “Remaining Percentages (%) 120 min” value in data set [3] (dog whole blood, 37C) was 62.08%. The compound further yielded a half-life at 5 μM in [3] (dog, whole blood) of 184 min.

Turning to `CC(C[N+](C)(C)C)OC(N)=O` (racemic) [BTC, bethanechol], in [4] (BTC at 30 μM following pre-treatment with Rac-THP at 30 nM), the change over baseline entry was “up to 50%”. Moreover, the “response of EFS-stimulated MPLM strips” value is on record as “concentration-dependent contraction” in data set [4] (setting [18]) and “concentration-dependent relaxation of the isolated MPLM strips back to baseline” in data set [4] (following pre-treatment with Rac-THP at 30 nM). Also, the “% Baseline tear production” value is recorded as 107% in data set [5] (1 hour post administration) and 117% in [5] (4 hours post administration).

Turning to `O=C(CCCN1CCC(O)(c2ccc(Cl)cc2)CC1)c1ccc(F)cc1` [haloperidol, Haloperidol], the “time spent holding bar, haloperidol-induced catalepsy” value in [6] (30 minutes after injection) and in data set [6] (60 minutes after injection) was “significantly increased the time the rats spend holding the bar” throughout.

For the compound `OC(CCN1CCCCC1)(c1ccccc1)C1CCCCC1` (racemic) [Rac-THP, racemic trihexyphenidyl], the “time spent holding bar, haloperidol-induced catalepsy” value in data set [6] (30 minutes after injection) and in data set [6] (60 minutes after injection) was “significantly attenuated haloperidol-induced catalepsy” each time. Moreover, the “response of EFS-stimulated MPLM strips” value in data set [4] (setting [18]) is given as “concentration-dependent relaxation response”. Moreover, in data set [7], the metabolites detected result is “metabolite 18 when incubated with microsomes, but additional metabolites 13, 14, and 16 were also observed”. Also, in [8], the “Substrates of CYP1A2” value was “S and Rac”. Besides, the CLint in [9], in data set [10], in [11], in [12] and in data set [14] was 0.00 µL/min/pmol in each case. The t1/2 result in data set [9] (unit not given), in [10] (unit not given), in data set [11] (unit not given), in data set [12] (unit not given) and in [14] (unit not given) was “∞” each time. Also, in [13], the “Substrates of CYP2D6” value was “Rac, R and S”. The “Substrates of CYP3A4” value in data set [15] is “Rac, R and S”. For the same compound, the “Substrates of CYP3A5” value in data set [16] is “Rac, R and S”. Besides, the “Substrates of CYP2C19” value in data set [17] is “Rac, R and S”.

Usually half-life stands for the time in which the quantity being followed falls by half. Read a high half-life as slow decline.

The record behind these values is US12290513B2, “Therapeutic methods and compositions for treating movement disorders” (Vima Therapeutics, Inc., priority 2023, dated 2025).
